Assay results as given in patent US7507727B2, “Substituted quinobenzoxazine analogs and methods of using thereof” (Cylene Pharmaceuticals, Inc., priority 2003, dated 2009).
Where two headings read alike, the source gives them in different places.

Legend:
[1] = target: c-Myc template DNA (c-myc quadruplex); experiment: Quadruplex binding / stop assay (Taq polymerase arrest, capillary electrophoresis)
HeLa cells = experiment: MTS cell proliferation and/or cytotoxicity assay; assay type: cell-based, Human; conditions: Homo sapiens, HeLa
Outline: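 HeLa cells seeded at 4,500 cells/well, exposed to compounds from day 1 for 3 days at 37 °C, 5% CO2. Viability by MTS/PMS (20:1) with 4 h incubation, absorbance at 490 nm. Values are concentrations giving 50% antiproliferative response.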

[2] = read-out: Stop Data c-Myc μM, concentration at which 50% of the DNA was arrested (arrested:full-length 1:1)
[3] = 72 h, concentration at which 50% of antiproliferative cell response is seen, 3 days incubation, read-out: MTS Data Hella
[4] = read-out: S DATA, Table 1D, stop assay data
[5] = HeLa cells, MTS, read-out: Hela MTS

Row | Structure (SMILES) | IC50 [1, 2] [µM] | IC50 (HeLa cells; [3]) [nM] | IC50 [1, 4] [µM] | IC50 (HeLa cells; [5]) [nM]
1 | CN1CCCC1CCNC(=O)c1cn2c3cc4oc5cc([N+](=O)[O-])ccc5[nH]c4cc3oc3c(NCCN4CCCC4)c(F)cc(c1=O)c32 (stereo not drawn) [compound 570] | 0.18 | 6800 |  | 
2 | CN1CCN(CCCNC(=O)c2cn3c4c(c(N5CCC(N)C5)c(F)cc4c2=O)Oc2cc4c(cc2-3)oc2ccccc24)CC1 (stereo not drawn) [compound 1467] | 0.25 | 350 |  | 
3 | CN1CCC[C@H]1CCNC(=O)c1cn2c3c(c(N4CCC(c5cnccn5)C4)c(F)cc3c1=O)Oc1cc3ccccc3cc1-2 (stereo partly drawn) [compound 1742] |  |  | 0.85 | 3300
4 | O=C(NCCN1CCCC1)c1cn2c3cc4c(cc3oc3c(NCCN5CCCC5)c(F)cc(c1=O)c32)c(=O)c1ccccc14 [compound 577] | 0.18 | 1100 |  | 
5 | N[C@@H]1CCN(c2c(F)cc3c(=O)c(C(=O)NCCN4CCCC4)cn4c3c2Oc2ccccc2-4)C1 [compound 112] | 1.75 | 220 |  | 
6 | CN(C)CCCCNc1c(F)cc2c(=O)c(C(=O)NCCN3CCOCC3)cn3c4cc5c(cc4oc1c23)c(=O)c1ccccc15 [compound 518] | 0.375 | 2200 |  | 
7 | CN1CCCC1CCNC(=O)c1cn2c3c(c(N4CC[C@H](N)C4)c(N)cc3c1=O)Oc1cc3ccccc3cc1-2 (stereo partly drawn) [compound 526] | 0.375 | 900 |  | 
8 | N[C@@H]1CCN(c2c(F)cc3c(=O)c(C(=O)NCCCN4CCOCC4)cn4c3c2Oc2cc3ccccc3cc2-4)C1 [compound 386] | 0.75 | 340 |  | 
9 | CN1CCCC1CCNC(=O)c1cn2c3c(c(NCCCN4CCOCC4)c(F)cc3c1=O)Oc1cc3c(cc1-2)oc1ccccc13 (stereo not drawn) [compound 362] | 0.75 | 4000 |  | 
10 | O=C(NCCCN1CCOCC1)c1cn2c3cc4c(cc3oc3c(NCCN5CCCC5)c(F)cc(c1=O)c32)c(=O)c1ccccc14 [compound 502] | 0.375 | 4000 |  | 
11 | N[C@@H]1CCN(c2c(F)cc3c(=O)c(C(=O)NCCCN4CCOCC4)cn4c3c2Oc2cc3c(cc2-4)oc2ccccc23)C1 [compound 375] | 0.75 | 2700 |  | 
12 | O=C(NCCN1CCCC1)c1cn2c3c(c(NCCCN4CCOCC4)c(F)cc3c1=O)Oc1cc3c(O)ncnc3cc1-2 [compound 107] | 1.75 | 1800 |  | 
13 | CN(C)CCCCNc1c(F)cc2c(=O)c(C(=O)NCCC3CCCN3C)cn3c4cc5c(cc4oc1c23)c(=O)c1ccccc15 (stereo not drawn) [compound 501] | 0.375 | 4200 |  | 
14 | N[C@H]1CCN(c2c(F)cc3c(=O)c(C(=O)NCCN4CCCC4)cn4c5cc6c(cc5oc2c34)c(=O)c2ccccc26)C1 [compound 583] | 0.18 | 250 |  | 
15 | CN1CCCC1CCNC(=O)c1cn2c3c(c(NCCc4ccc(O)c(O)c4)c(F)cc3c1=O)Oc1cc3ccccc3cc1-2 (stereo not drawn) [compound 1680] |  |  | 0.75 | 1800
16 | CN(C)CCCCNc1c(F)cc2c(=O)c(C(=O)NCCCN3CCOCC3)cn3c4cc5c(cc4oc1c23)c(=O)c1ccccc15 [compound 522] | 0.375 | 1700 |  | 
17 | O=C(CCNCCN1CCOCC1)N[C@@H]1CCN(c2c(F)cc3c(=O)c(C(=O)NCCN4CCCC4)cn4c3c2Oc2cc3c(cc2-4)oc2ccccc23)C1 [compound 358] | 0.75 | 5700 |  | 
18 | CN1CCCC1CCNC(=O)c1cn2c3c(c(N4CCC(N)C4)c(F)cc3c1=O)Oc1cc(-c3nc4ccccc4s3)ccc1-2 (stereo not drawn) [compound 311] | 1 | 2100 |  | 
19 | CN1CCCC1CCNc1c(F)cc2c(=O)c(C(=O)NCCN3CCCC3)cn3c2c1Oc1c-3ccc2ccccc12 (stereo not drawn) [compound 497] | 0.41 | 2100 |  | 
20 | NCCCNC(=O)c1cn2c3c(c(N4CC[C@@H](N)C4)c(F)cc3c1=O)Oc1cc3ccccc3cc1-2 [compound 485] | 0.5 | 500 |  | 
21 | CC1(C)CC(NC(=O)c2cn3c4c(c(N5CC6CCCNC6C5)c(F)cc4c2=O)Oc2cc4ccccc4cc2-3)CC(C)(C)N1 (stereo not drawn) [compound 1642] |  |  | 0.5 | 180
22 | CN(C)/C=N/CCCCNC(=O)c1cn2c3c(c(N4CC[C@@H](N)C4)c(F)cc3c1=O)Oc1cc3ccccc3cc1-2 [compound 503] | 0.375 | 4000 |  | 
23 | NC1CCN(c2c(F)cc3c(=O)c(C(=O)O)cn4c5cc6c(=O)c7ccccc7c(=O)c6cc5oc2c34)C1 (stereo not drawn) [compound 25] | 0.25 | 200 |  | 

Row | Structure (SMILES) | IC50 [1, 2] [µM] | IC50 (HeLa cells; [3]) [nM] | IC50 [1, 4] [µM] | IC50 (HeLa cells; [5]) [nM]
24 | CN1CCCC1CCNC(=O)c1cn2c3c(c(N[C@@H]4CN5CCC4CC5)c(F)cc3c1=O)Oc1cc3ccccc3cc1-2 (stereo partly drawn) [compound 1497] |  |  | 0.5 | 390
25 | CN1CCCC1CCNC(=O)c1cn2c3c(c(N4CC5CCCNC5C4)c(F)cc3c1=O)Oc1cc3ccccc3cc1-2 (stereo not drawn) [compound 1636] |  |  | 0.375 | 150
26 | CN(C)CCCCNc1c(F)cc2c(=O)c(C(=O)NCCC3CCCN3C)cn3c4cc5oc6cc([N+](=O)[O-])ccc6[nH]c5cc4oc1c23 (stereo not drawn) [compound 569] | 0.18 | 7800 |  | 
27 | CN(C)CCCCNc1c(F)cc2c(=O)c(C(=O)NCCN3CCCC3)cn3c2c1Oc1cc2c(cc1-3)oc1ccccc12 [compound 369] | 0.75 | 3500 |  | 
28 | CN(C)CCCCNC(=O)c1cn2c3c(c(N4CC[C@@H](NC(=O)CCN5CCCC5)C4)c(F)cc3c1=O)Oc1cc3c(cc1-2)oc1ccccc13 [compound 510] | 0.375 | 3100 |  | 
29 | CN1CCN(CCCNC(=O)c2cn3c4c(c(N5CC[C@@H](N)C5)c(F)cc4c2=O)Oc2cc4ccccc4cc2-3)CC1 [compound 538] | 0.375 | 280 |  | 
30 | CN(C)CCCCNC(=O)c1cn2c3cc4c(cc3oc3c(N5CC[C@H](N)C5)c(F)cc(c1=O)c32)c(=O)c1ccccc14 [compound 580] | 0.18 | 300 |  | 
31 | CN1CCCC1CCNC(=O)c1cn2c3cc4c(cc3oc3c(N5CC[C@H](N)C5)c(F)cc(c1=O)c32)c(=O)c1ccccc14 (stereo partly drawn) [compound 582] | 0.18 | 280 |  | 
32 | CN(CCc1ccccn1)C(=O)c1cn2c3c(c(NCCCN4CCOCC4)c(F)cc3c1=O)Oc1cc3c(cc1-2)-c1ccccc1C3 [compound 307] | 1 | 3100 |  | 
33 | CN1CCCC1CCNC(=O)c1cn2c3c(c(N4CCC(c5cnccn5)C4)c(F)cc3c1=O)Oc1cc3ccccc3cc1-2 (stereo not drawn) [compound 1512] |  |  | 0.78 | 3100
34 | CN1CCCC1CCNC(=O)c1cn2c3c(c(N4CCC(N)C4)c(F)cc3c1=O)Oc1cc3c(cc1-2)Cc1ccccc1-3 (stereo not drawn) [compound 537] | 0.375 | 290 |  | 
35 | O=C(N[C@H]1C(O)O[C@H](CO)[C@H](O)[C@@H]1O)c1cn2c3c(c(NCCCN4CCOCC4)c(F)cc3c1=O)Oc1cc3c(cc1-2)oc1ccccc13 (stereo partly drawn) [compound 37] | 2.5 | 2800 |  | 
36 | CN(C)/C=N/CCCNC(=O)c1cn2c3c(c(N4CC[C@@H](N)C4)c(F)cc3c1=O)Oc1cc3ccccc3cc1-2 [compound 371] | 0.75 | 3500 |  | 
37 | CN1CCCC1CCNC(=O)c1cn2c3c(c(NCCCN(CCO)CCO)c(F)cc3c1=O)Oc1cc3ccccc3cc1-2 (stereo not drawn) [compound 1686] |  |  | 0.375 | 400
38 | CN1CCCC1CCNC(=O)c1cn2c3c(c(N4CC[C@@H](NC(=O)CCN5CCCC5)C4)c(F)cc3c1=O)Oc1cc3c(cc1-2)oc1ccccc13 (stereo partly drawn) [compound 483] | 0.5 | 3200 |  | 
39 | CN(C)CCCCNC(=O)c1cn2c3c(c(N4CC[C@H](N)C4)c(F)cc3c1=O)Oc1cc3ccccc3cc1-2 [compound 475] | 0.58 | 240 |  | 
40 | CN(C)CCCCNC(=O)c1cn2c3cc4c(=O)c5ccccc5c(=O)c4cc3oc3c(NCCN4CCCC4)c(F)cc(c1=O)c32 [compound 574] | 0.18 | 4000 |  | 
41 | CC1(C)CC(NC(=O)c2cn3c4c(c(N5CCC(N)C5)ccc4c2=O)Oc2cc4ccccc4cc2-3)CC(C)(C)N1 (stereo not drawn) [compound 1558] |  |  | 0.375 | 240
42 | NC1CCN(c2ccc3c(=O)c(C(=O)NCCCN4CCOCC4)cn4c3c2Oc2cc3ccccc3cc2-4)C1 (stereo not drawn) [compound 1557] |  |  | 0.75 | 1500
43 | O=C(NCCN1CCCC1)c1cn2c3c(c(NCCN4CCCC4)c(F)cc3c1=O)Oc1cc3c(cc1-2)oc1ccccc13 [compound 477] | 0.55 | 2100 |  | 
44 | CN1CCCC1CCNC(=O)c1cn2c3c(c(N4CC[C@@H](N)C4)c(F)cc3c1=O)Oc1c-2ccc2ccccc12 (stereo partly drawn) [compound 110] | 1.75 | 250 |  | 
45 | CN(C)CCCCNC(=O)c1cn2c3c(c(N4CC[C@@H](NC(=O)CCNCCCn5ccnc5)C4)c(F)cc3c1=O)Oc1cc3c(cc1-2)oc1ccccc13 [compound 500] | 0.375 | 5600 |  | 
